Biological target: Glutathionylspermidine synthetase/amidase (Escherichia coli) (UniProt P0AES0)
Assay: Inhibition of Glutathionylspermidine synthetase from Escherichia coli, value taken from literature

Sequence of Glutathionylspermidine synthetase/amidase (Escherichia coli) (P0AES0 whole entry, looked up): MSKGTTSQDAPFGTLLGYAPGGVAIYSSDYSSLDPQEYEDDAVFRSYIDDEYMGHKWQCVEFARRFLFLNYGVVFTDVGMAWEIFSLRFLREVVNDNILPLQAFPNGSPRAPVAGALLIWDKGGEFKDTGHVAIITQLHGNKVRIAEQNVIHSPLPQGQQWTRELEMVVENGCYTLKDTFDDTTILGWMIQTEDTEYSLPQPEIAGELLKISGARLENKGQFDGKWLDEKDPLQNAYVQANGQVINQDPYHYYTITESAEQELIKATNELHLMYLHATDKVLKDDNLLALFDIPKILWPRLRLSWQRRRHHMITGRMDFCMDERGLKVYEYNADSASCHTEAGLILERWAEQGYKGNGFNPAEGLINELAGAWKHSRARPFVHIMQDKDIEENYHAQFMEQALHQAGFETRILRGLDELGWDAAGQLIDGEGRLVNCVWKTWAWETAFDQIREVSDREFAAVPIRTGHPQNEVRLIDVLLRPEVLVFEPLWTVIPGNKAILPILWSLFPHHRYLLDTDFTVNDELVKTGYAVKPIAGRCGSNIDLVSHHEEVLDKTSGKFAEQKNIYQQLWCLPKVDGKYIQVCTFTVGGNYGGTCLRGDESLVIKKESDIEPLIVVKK

- Ki: 14 µM
SMILES: C[C@H](NC(=O)CC[C@H](N)C(=O)O)C(=O)NCP(=O)(O)OCCCNCCCCN [2-Amino-4-[1-({[3-(4-amino-butylamino)-propoxy]-hydroxy-phosphorylmethyl}-carbamoyl)-ethylcarbamoyl]-butyric acid]

From BindingDB's records for doi:10.1021/jm970414b (University of Michigan, 1997)
